Assay results reported in patent publication US4018895A, “Aryloxyphenylpropylamines in treating depression” (Eli Lilly and Company, priority 1975, dated 1977).
Read-outs that look alike come from different tables or passages of the source.

What was measured:
[1] = test system: serotonin uptake by synaptosomes from rat brain; experiment: In vitro blockade of serotonin uptake by synaptosomes from rat brain; format: biochemical; settings: Table 1, scaffold drawing 3; serotonin 0.1 μM
Text: (§1) This blockade is shown both in vitro with radioactive labelled compounds to determine the amount of monoamine uptake by synaptosomes from rat brain, and in vivo by a variety of methods. Among the physiologically active monoamines whose uptake is blocked by the compounds of this invention are included serotonin, norepinephrine and dopamine (3,4-dihydroxyphenylethylamine). […] Tables 1 and 2 which follow set forth the results of some of the in vitro determinations of the blockage of monoamine uptake by the compounds of this invention. In the tables, column 1 gives the R substituent on the 3-phenylpropylamine and columns 2-4, the concentration in micrograms per ml. that blocks the uptake of a particular amine by 50 percent for the amines--norephinephrine, serotonin, and dopamine. At the head of each column is given the concentration of the particular monoamine used in the experiment.

[2] = test system: dopamine uptake by synaptosomes from rat brain; experiment: In vitro blockade of dopamine uptake by synaptosomes from rat brain; format: biochemical; settings: Table 1, scaffold drawing 3; dopamine 0.2 μM
Text: as §1

[3] = test system: hypothermia induced by the injection of reserpine; experiment: Reserpine hypothermia reversal test; format: in vivo, mice; settings: for inhibition in vivo at 3 mg/kg / inhibition in vivo at 10 mg/kg / inhibition in vivo at 1 mg/kg / inhibition in vivo at 0.3 mg/kg: Mus musculus, ip, 1 h, Post-60 min., mice, read-out: Percent Antagonism Reserpine; for inhibition in vivo at 3 mg/kg: 3 mg./kg. intraperitoneally; for inhibition in vivo at 10 mg/kg: 10 mg./kg. intraperitoneally; for inhibition in vivo at 1 mg/kg: 1 mg./kg. intraperitoneally; for Activity in reversal of reserpine hypothermia: in words; for inhibition in vivo at 0.3 mg/kg: .3 mg./kg. intraperitoneally
Method: (§2) The apomorphine hypothermia antagonism test is carried out as follows: mice are injected with a dose of apomorphine known to reduce body temperature approximately 4° C. The compound under test is injected 1/2 hour before the injection of the apomorphine and the temperatures measured 1/2 hour after injection. The degree of antagonism is expressed as a percent reduction (as compared with controls) of the temperature decrease produced by the injection of the apomorphine. The reserpine hypothermia reversal test is carried out as follows: groups of mice are injected with reserpine and 16.5 hours later are injected intraperitoneally with graded doses of the drug, a different dose level being given to each group of mice. Temperatures are measured at 1 hour after injection of the drug under test and again the effectiveness of the drug is expressed as a percentage decrease in the hypothermia induced by the injection of reserpine as compared with the control group. In the tablets which follow, Table 4 gives the results in the apomorphine antagonism and reserpine reversal hypothermia tests for the secondary amines of this invention. In the table, the first column gives the substituent attached to the oxygen atom at the 3 position of the propylamine chain; columns 2 to 4 the percent antagonism against apomorphine hypothermia at dose levels of 0.3, 1 and 3 mg./kg. and columns 5-7 the percent reversal of reserpine hypothermia at the same dose levels.

[4] = test system: hypothermia induced by the injection of apomorphine; experiment: Apomorphine hypothermia antagonism test; format: in vivo, mice; settings: for Activity in antagonism of apomorphine hypothermia: in words
Method: as §2, with “The compound under test is injected 1/2 hour before the injection of the apomorphine and the temperatures measured 1/2 hour after injection.” left out

[5] = test system: norepinephrine uptake by synaptosomes from rat brain; experiment: In vitro blockade of norepinephrine uptake by synaptosomes from rat brain; format: biochemical; settings: Table 1, scaffold drawing 3; norepinephrine 0.48 μM
Text: as §1

[6] = Table 5, dimethylamino compounds
[7] = Mus musculus, Table 5, dimethylamino compounds, Pre-30 min., mice, read-out: Percent Antagonism Apomorphine
[8] = Mus musculus, Table 4, secondary amines, Pre-30 min., mice, read-out: Percent Antagonism Apomorphine

In the case of `CN(C)CCC(Oc1ccccc1Br)c1ccccc1.O=C(O)C(=O)O` (stereo not shown) [o-bromophenyl, N,N-dimethyl 3-(o-bromophenoxy)-3-phenylpropylamine oxalate], the “Concentration that blocks 50% of amine uptake, Serotonin” value [1] was “.1 mcq./ml”, the “Concentration that blocks 50% of amine uptake, Dopamine” value [2] was 5 mcq./ml and the inhibition in vivo at 3 mg/kg [3, 6] was 18%. The inhibition in vivo at 10 mg/kg [3, 6] was 30%, the inhibition in vivo at 1 mg/kg [4, 7] was 19% and the inhibition in vivo at 3 mg/kg [4, 7] was 40%. The inhibition in vivo at 10 mg/kg [4, 7] was 47%.
In the case of `CN(C)CCC(Oc1cccc2ccccc12)c1ccccc1.O=C(O)/C=C\C(=O)O` (stereo not drawn) [α-naphthyl, N,N-dimethyl 3-(α-naphthyloxy)-3-phenylpropylamine maleate], the “Concentration that blocks 50% of amine uptake, Serotonin” value [1] was “.03 mcq./ml”, the “Concentration that blocks 50% of amine uptake, Dopamine” value [2] was 2.5 mcq./ml and the inhibition in vivo at 1 mg/kg [3, 6] was 15%. The inhibition in vivo at 3 mg/kg [3, 6] was 4%, the inhibition in vivo at 10 mg/kg [3, 6] was 15% and the “Concentration that blocks 50% of amine uptake, Norepinephrine” value [5] was 3 mcq./ml. The inhibition in vivo at 1 mg/kg [4, 7] was -17%, the inhibition in vivo at 3 mg/kg [4, 7] was -10% and the inhibition in vivo at 10 mg/kg [4, 7] was -7%.
`Cc1cc(F)ccc1OC(CCN(C)C)c1ccccc1.O=C(O)C(=O)O` (stereo not shown) [4-fluoro-o-tolyl, N,N-dimethyl 3-(p-fluoro-o-tolyloxy)-3-phenylpropylamine oxalate] was tested, and the “Concentration that blocks 50% of amine uptake, Serotonin” value [1] was “.6 mcq./ml”, the “Concentration that blocks 50% of amine uptake, Dopamine” value [2] was 40 mcq./ml and the “Concentration that blocks 50% of amine uptake, Norepinephrine” value [5] was 2.5 mcq./ml.
`CN(C)CCC(Oc1cccc(Cl)c1)c1ccccc1` (stereo not shown) [m-chlorophenyl] gave an inhibition in vivo at 1 mg/kg [4, 7] of 0%, an inhibition in vivo at 3 mg/kg [4, 7] of 13% and an inhibition in vivo at 10 mg/kg [4, 7] of 66%.
Work on `COc1ccccc1OC(CCN(C)C)c1ccccc1` (stereo not shown) [o-anisyl] yielded an inhibition in vivo at 1 mg/kg [4, 7] of 11%, an inhibition in vivo at 3 mg/kg [4, 7] of 30% and an inhibition in vivo at 10 mg/kg [4, 7] of 61%.
`Cc1ccccc1OC(CCN(C)C)c1ccccc1` (stereo not shown) [o-tolyl] showed an inhibition in vivo at 3 mg/kg [4, 7] of 11% and an inhibition in vivo at 10 mg/kg [4, 7] of 94%.
In the case of `CN(C)CCC(Oc1ccc(C(F)(F)F)cc1)c1ccccc1` (stereo not shown) [p-trifluoromethylphenyl], the inhibition in vivo at 10 mg/kg [4, 7] was 24%.
`COc1cccc(OC(CCN(C)C)c2ccccc2)c1.O=C(O)C(=O)O` (stereo not shown) [m-methoxyphenyl, N,N-dimethyl 3-phenyl-3-(m-methoxyphenoxy)propylamine oxalate] was tested, and the “Concentration that blocks 50% of amine uptake, Serotonin” value [1] was “.08 mcq./ml”, the “Concentration that blocks 50% of amine uptake, Dopamine” value [2] was “.5 mcq./ml” and the “Concentration that blocks 50% of amine uptake, Norepinephrine” value [5] was “.2 mcq./ml”.
In the case of `CN(C)CCC(Oc1ccccc1C(C)(C)C)c1ccccc1.O=C(O)C(=O)O` (stereo not shown) [o-t-butylphenyl, N,N-dimethyl 3-phenyl-3-(o-t-butylphenoxy)propylamine oxalate], the “Concentration that blocks 50% of amine uptake, Serotonin” value [1] was 40 mcq./ml, the “Concentration that blocks 50% of amine uptake, Dopamine” value [2] was greater than 100 mcq./ml and the “Concentration that blocks 50% of amine uptake, Norepinephrine” value [5] was 1.5 mcq./ml.
For `CCc1ccccc1OC(CCN(C)C)c1ccccc1.O=C(O)C(=O)O` (stereo not shown) [o-ethylphenyl, N,N-dimethyl 3-(o-ethylphenoxy)-3-phenylpropylamine oxalate], the “Concentration that blocks 50% of amine uptake, Serotonin” value [1] was 3.5 mcq./ml, the “Concentration that blocks 50% of amine uptake, Dopamine” value [2] was greater than 100 mcq./ml and the inhibition in vivo at 1 mg/kg [3, 6] was 17%. For the same molecule, the inhibition in vivo at 3 mg/kg [3, 6] was 13%, the inhibition in vivo at 10 mg/kg [3, 6] was 35% and the “Concentration that blocks 50% of amine uptake, Norepinephrine” value [5] was greater than 100 mcq./ml. For the same molecule, the inhibition in vivo at 3 mg/kg [4, 7] was 20% and the inhibition in vivo at 10 mg/kg [4, 7] was 74%.
For `CN(C)CCC(Oc1ccc2ccccc2c1)c1ccccc1.O=C(O)C(=O)O` (stereo not drawn) [β-naphthyl, N,N-dimethyl 3-(β-naphthyloxy)-3-phenylpropylamine oxalate], the “Concentration that blocks 50% of amine uptake, Serotonin” value [1] was 1 mcq./ml, the “Concentration that blocks 50% of amine uptake, Dopamine” value [2] was 100 mcq./ml and the “Concentration that blocks 50% of amine uptake, Norepinephrine” value [5] was greater than 100 mcq./ml.
`CNCCC=C1c2ccccc2CCc2ccccc21` [nortriptyline, reference compound] was tested, and the “Activity in reversal of reserpine hypothermia” value [3] was “active” and the “Activity in antagonism of apomorphine hypothermia” value [4] was “active”.
For `CN(C)CCCN1c2ccccc2CCc2ccccc21` [imipramine, reference compound], the “Activity in reversal of reserpine hypothermia” value [3] was “active”, the “Reduction of apomorphine hypothermia” value ([4]; 10 mg./kg. dose, measured 60 minutes after injection of the apomorphine) was 100% and the “Activity in antagonism of apomorphine hypothermia” value [4] was “active”.
Work on `CN(C)CCC(Oc1ccc(Cl)cc1)c1ccccc1` (stereo not shown) [p-chlorophenyl] yielded an inhibition in vivo at 1 mg/kg [4, 8] of 29%, an inhibition in vivo at 3 mg/kg [4, 8] of 37% and an inhibition in vivo at 0.3 mg/kg ([4]; Mus musculus, Table 4, secondary amines, .3 mg./kg., Pre-30 min., mice, read-out: Percent Antagonism Apomorphine) of 32%. The inhibition in vivo at 1 mg/kg [4, 7] was 7%, the inhibition in vivo at 3 mg/kg [4, 7] was 43% and the inhibition in vivo at 10 mg/kg [4, 7] was 85%.
`CN(C)CCC(Oc1cccc(C(F)(F)F)c1)c1ccccc1.O=C(O)C(=O)O` (stereo not shown) [m-trifluoromethylphenyl, N,N-dimethyl 3-phenyl-3-(m-trifluoromethylphenoxy) propylamine oxalate] was tested, and the “Concentration that blocks 50% of amine uptake, Serotonin” value [1] was “.18 mcq./ml”, the “Concentration that blocks 50% of amine uptake, Dopamine” value [2] was greater than 100 mcq./ml and the “Concentration that blocks 50% of amine uptake, Norepinephrine” value [5] was 8 mcq./ml.
`CN(C)CCC(Oc1ccccc1F)c1ccccc1` (stereo not shown) [o-fluorophenyl] showed an inhibition in vivo at 1 mg/kg [4, 7] of -10%, an inhibition in vivo at 3 mg/kg [4, 7] of 11% and an inhibition in vivo at 10 mg/kg [4, 7] of 31%.
`CN(C)CCC(Oc1ccc(F)cc1)c1ccccc1` (stereo not shown) [p-fluorophenyl] gave an inhibition in vivo at 1 mg/kg ([3]; Table 4, secondary amines) of 39%, an inhibition in vivo at 3 mg/kg ([3]; Table 4, secondary amines) of 32% and an inhibition in vivo at 0.3 mg/kg ([3]; Table 4, secondary amines) of 7%. The inhibition in vivo at 1 mg/kg [3, 6] was 10%, the inhibition in vivo at 3 mg/kg [3, 6] was 24% and the inhibition in vivo at 10 mg/kg [3, 6] was 49%. The inhibition in vivo at 0.3 mg/kg [3, 6] was 14%, the inhibition in vivo at 1 mg/kg [4, 7] was 26% and the inhibition in vivo at 3 mg/kg [4, 7] was 63%. For the same molecule, the inhibition in vivo at 10 mg/kg [4, 7] was 116%.
`COc1ccc(OC(CCN(C)C)c2ccccc2)cc1` (stereo not shown) [p-anisyl] gave an inhibition in vivo at 10 mg/kg [4, 7] of 25%.
In the case of `Cc1cccc(OC(CCN(C)C)c2ccccc2)c1.O=C(O)C(=O)O` (stereo not shown) [m-tolyl, N,N-dimethyl 3-phenyl-3-(m-tolyloxy)propylamine oxalate], the “Concentration that blocks 50% of amine uptake, Serotonin” value [1] was “.7 mcq./ml”, the “Concentration that blocks 50% of amine uptake, Dopamine” value [2] was greater than 0 mcq./ml and the “Concentration that blocks 50% of amine uptake, Norepinephrine” value [5] was 12 mcq./ml.
